Test results as given in US12655185B2, “Peptide inhibitors of interleukin-23 and their use to treat inflammatory diseases” (Protagonist Therapeutics, Inc., priority 2016, dated 2026).
Bridge positions count the residues as written; N and C are the ends. Peptide text beside a SMILES is read from it.

Key:
[1] = target: T1, IL-23 binding to IL23R_huFC (human IL-23R) (Homo sapiens, UniProt P29460+Q9NPF7); experiment: IL23-IL23R Competitive Binding ELISA; details: inhibition of IL-23/IL-23R binding; IL-23 0.9 nM; class symbols; read-out: IC50 IL23R_huFC
T1 sequence (Q9NPF7 20-189): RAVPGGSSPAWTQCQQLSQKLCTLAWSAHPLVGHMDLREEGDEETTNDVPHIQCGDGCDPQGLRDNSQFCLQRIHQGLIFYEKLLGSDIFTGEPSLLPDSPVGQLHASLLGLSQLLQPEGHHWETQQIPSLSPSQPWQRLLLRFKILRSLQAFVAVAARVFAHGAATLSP
T1 sequence (P29460 23-328): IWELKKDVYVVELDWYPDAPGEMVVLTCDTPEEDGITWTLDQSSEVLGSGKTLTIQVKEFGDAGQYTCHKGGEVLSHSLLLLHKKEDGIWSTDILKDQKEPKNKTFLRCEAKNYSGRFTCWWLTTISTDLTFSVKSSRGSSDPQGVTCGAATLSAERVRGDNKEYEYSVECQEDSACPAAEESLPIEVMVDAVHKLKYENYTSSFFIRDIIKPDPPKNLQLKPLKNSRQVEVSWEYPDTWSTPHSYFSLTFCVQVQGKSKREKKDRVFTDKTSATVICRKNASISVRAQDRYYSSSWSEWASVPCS
Procedure: Immulon® 4HBX plate was coated with 200 ng/well of IL23R_huFC and incubated overnight at 4° C. […] Serial dilutions of test peptides and IL-23 at a final concentration of 0.9 nM diluted in PBS were added to each well and incubated for 2 hours at room temperature. After the wells were washed, bound IL-23 was detected by incubation with 50 ng/well of goat anti-p40 polyclonal antibodies (R&D Systems #AF309) diluted in PBS for 1 hour at room temperature. The wells were again washed four times with PBST. […] The plate was finally washed as above. Signals were visualized with TMB One Component HRP Membrane Substrate, quenched with 2 M sulfuric acid and read spectrophotometrically at 450 nm.

[2] = target: T2, IL-23 binding to human IL-12Rβ1_huFC (Homo sapiens, UniProt P29460+Q9NPF7); experiment: Human IL23/IL12Rβ1 huFc ELISA; details: result in words
T2 sequence (Q9NPF7 20-189): T1 sequence (Q9NPF7 20-189)
T2 sequence (P29460 23-328): T1 sequence (P29460 23-328)
Procedure: The ability of Peptide 10 to block binding of IL-23 to IL-12Rβ1 or binding of IL-12 to IL-12Rβ1 was also determined. Human IL-12Rβ1 ELISA assays were performed as follows: an assay plate was coated with 100 ng/well of human IL-12Rβ1_huFC and incubated overnight at 4° C. The wells were washed, blocked, and washed again. Serial dilutions of test peptides and either IL-23 or IL-12 at a fixed concentration corresponding to EC50 values were added to each well, and incubated for 2 hours at room temperature. After the wells were washed, bound IL-23 were detected with goat anti-p40 polyclonal antibodies followed by an HRP conjugated donkey anti-goat IgG, and bound IL-12 were detected with a biotin conjugated anti-p40 monoclonal antibody followed by HRP conjugated streptavidin. Signals were visualized with TMB One Component HRP Membrane Substrate and quenched with 2 M sulfuric acid.

[3] = system: human IL-23-dependent release of IL-17 from mouse splenocytes; experiment: Mouse splenocyte assay; assay type: cell-based; details: IL-17A release; IL-23 20 ng/mL; 67 hours
Procedure: Frozen mouse splenocytes (Hooke Lab), suspended in RPMI Medium 1640 (Life technologies #22400-089) supplemented with 10% heat inactivated FBS (Life technologies #16140-071), 1×MEM Non-Essential Amino Acid Solution (Life technologies #11140-050), 1 mM sodium pyruvate (Life technologies #11360-070), 100 units of Penicillin-Streptomycin (Life technologies #15140-122, 0.05 mM 2-mercaptoethanol (Life technologies #21985-023) and recombinant human IL-2 (R&D Systems #202-IL-010/CF), were seeded at 4×10E5 cells/well in a 96 well tissue culture plate. Serial dilutions of test peptides and IL-23 at a final concentration of 20 ng/mL were preincubated in a separate assay plate for 60 minutes at 37° C. in a 5% CO2 humidified incubator. Preincubated samples were then added to the culture plate containing splenocytes and incubated for an additional 67 hours at 37° C. in a 5% CO2 humidified incubator. A sandwich ELISA kit for mouse IL17A (Biolegend #436204) was used to measure the amount of IL-17A in each sample supernatants, according to manufacturer's instructions.

Question: For `CC[C@H](C)[C@@H]1NC(=O)[C@H](CCCCN)NC(=O)[C@H](C)NC(=O)[C@H](Cc2c[nH]c3ccccc23)NC(=O)[C@H](CCCNC(=N)N)NC(=O)[C@H](CCC(N)=O)NC(=O)[C@H](CCC(=O)O)NC(=O)[C@H](CCC(N)=O)NC(=O)[C@H](C)NC(=O)[C@H](CC(C)C)NC(=O)[C@H](CC(N)=O)NC(=O)[C@@H]2CCCN2C(=O)[C@H](CC(=O)O)NC(=O)[C@H](C(C)C)NC(=O)CNC(=O)[C@H](C)NC(=O)[C@H](CCC(=O)O)NC(=O)[C@H](CO)NC(=O)[C@H](CCSC)NC(=O)[C@H](CCCNC(=N)N)NC(=O)[C@H](CCCNC(=N)N)NC(=O)[C@H](CC(C)C)NC(=O)[C@@H](NC(=O)[C@H](CCC(N)=O)NC(=O)[C@H](CCSC)NC(=O)[C@H](CC(N)=O)NC(=O)[C@H](Cc2ccccc2)NC(C)=O)CSSC[C@@H](C(N)=O)NC(=O)[C@H](CC(=O)O)NC(=O)[C@H](CC(=O)O)NC(=O)[C@H](CCSC)NC(=O)[C@H]([C@@H](C)CC)NC(=O)[C@H](CO)NC(=O)[C@H](CCCCN)NC1=O` [Peptide 17] (Ac-FNMQCLRRMSEAGVDPNLAQEQRWAKIKSIMDDC-NH2; disulfide 5-34), which IC50 [1] is on record?
Answer: Its IC50 is 1 to 10 µM.

Question: How did the IC50 [1] turn out when `CC[C@H](C)[C@@H]1NC(=O)[C@H](CCCCN)NC(=O)[C@H](C)NC(=O)[C@H](Cc2c[nH]c3ccccc23)NC(=O)[C@H](C)NC(=O)[C@H](CCC(N)=O)NC(=O)[C@H](CCC(=O)O)NC(=O)[C@H](CCC(N)=O)NC(=O)[C@H](CC(N)=O)NC(=O)[C@H](CC(C)C)NC(=O)[C@H](CC(N)=O)NC(=O)[C@@H]2CCCN2C(=O)[C@H](CC(=O)O)NC(=O)[C@H](C(C)C)NC(=O)CNC(=O)[C@H](C)NC(=O)[C@H](CCC(=O)O)NC(=O)[C@H](CO)NC(=O)[C@H](CCSC)NC(=O)[C@H](CCCNC(=N)N)NC(=O)[C@H](CCCNC(=N)N)NC(=O)[C@H](CC(C)C)NC(=O)[C@@H](NC(=O)[C@H](CCC(N)=O)NC(=O)[C@H](CCSC)NC(=O)[C@H](CC(N)=O)NC(=O)[C@H](Cc2ccccc2)NC(C)=O)CSSC[C@@H](C(N)=O)NC(=O)[C@H](CC(=O)O)NC(=O)[C@H](CC(=O)O)NC(=O)[C@H](CCSC)NC(=O)[C@H]([C@@H](C)CC)NC(=O)[C@H](CO)NC(=O)[C@H](CCCCN)NC1=O` [Peptide 19] (Ac-FNMQCLRRMSEAGVDPNLNQEQAWAKIKSIMDDC-NH2; disulfide 5-34) was run?
Answer: Its IC50 is 1 to 10 µM.

Question: With `CC[C@H](C)[C@@H]1NC(=O)[C@H](CCCCN)NC(=O)[C@H](C)NC(=O)[C@H](C)NC(=O)[C@H](CCCNC(=N)N)NC(=O)[C@H](CCC(N)=O)NC(=O)[C@H](CCC(=O)O)NC(=O)[C@H](CCC(N)=O)NC(=O)[C@H](CC(N)=O)NC(=O)[C@H](CC(C)C)NC(=O)[C@H](CC(N)=O)NC(=O)[C@@H]2CCCN2C(=O)[C@H](CC(=O)O)NC(=O)[C@H](C(C)C)NC(=O)CNC(=O)[C@H](C)NC(=O)[C@H](CCC(=O)O)NC(=O)[C@H](CO)NC(=O)[C@H](CCSC)NC(=O)[C@H](CCCNC(=N)N)NC(=O)[C@H](CCCNC(=N)N)NC(=O)[C@H](CC(C)C)NC(=O)[C@@H](NC(=O)[C@H](CCC(N)=O)NC(=O)[C@H](CCSC)NC(=O)[C@H](CC(N)=O)NC(=O)[C@H](Cc2ccccc2)NC(C)=O)CSSC[C@@H](C(N)=O)NC(=O)[C@H](CC(=O)O)NC(=O)[C@H](CC(=O)O)NC(=O)[C@H](CCSC)NC(=O)[C@H]([C@@H](C)CC)NC(=O)[C@H](CO)NC(=O)[C@H](CCCCN)NC1=O` [Peptide 20] (Ac-FNMQCLRRMSEAGVDPNLNQEQRAAKIKSIMDDC-NH2; disulfide 5-34) as the molecule, how does the IC50 [1] read?
Answer: Its IC50 is 1 to 10 µM.

Question: For `CC[C@H](C)[C@@H]1NC(=O)[C@H](CO)NC(=O)[C@H](CCCCN)NC(=O)[C@H](C)NC(=O)[C@H](CCCCN)NC(=O)[C@H](C)NC(=O)[C@H](Cc2c[nH]c3ccccc23)NC(=O)[C@H](CCCNC(=N)N)NC(=O)[C@H](CCC(N)=O)NC(=O)[C@H](CCC(=O)O)NC(=O)[C@H](CCC(N)=O)NC(=O)[C@H](CC(N)=O)NC(=O)[C@H](CC(C)C)NC(=O)[C@H](CC(N)=O)NC(=O)[C@@H]2CCCN2C(=O)[C@H](CC(=O)O)NC(=O)[C@H](C(C)C)NC(=O)CNC(=O)[C@H](C)NC(=O)[C@H](CCC(=O)O)NC(=O)[C@H](CO)NC(=O)[C@H](CCSC)NC(=O)[C@H](CCCNC(=N)N)NC(=O)[C@H](CCCNC(=N)N)NC(=O)[C@H](CC(C)C)NC(=O)[C@@H](NC(=O)[C@H](CCC(N)=O)NC(=O)[C@H](CCSC)NC(=O)[C@H](CC(N)=O)NC(=O)[C@H](Cc2ccccc2)NC(C)=O)CSSC[C@@H](C(N)=O)NC(=O)[C@H](CC(=O)O)NC(=O)[C@H](CC(=O)O)NC(=O)[C@H](CCSC)NC1=O` [Peptide 21] (Ac-FNMQCLRRMSEAGVDPNLNQEQRWAKAKSIMDDC-NH2; disulfide 5-34), which IC50 [1] is on record?
Answer: The IC50 was 1 to 10 µM.

Question: Which IC50 [1] does the source give for `CC[C@H](C)[C@@H]1NC(=O)[C@H](CCCCN)NC(=O)[C@H](C)NC(=O)[C@H](Cc2c[nH]c3ccccc23)NC(=O)[C@H](CCCNC(=N)N)NC(=O)[C@H](CCC(N)=O)NC(=O)[C@H](CCC(=O)O)NC(=O)[C@H](CCC(N)=O)NC(=O)[C@H](CC(N)=O)NC(=O)[C@H](CC(C)C)NC(=O)[C@H](CC(N)=O)NC(=O)[C@@H]2CCCN2C(=O)[C@H](CC(=O)O)NC(=O)[C@H](C(C)C)NC(=O)CNC(=O)[C@H](C)NC(=O)[C@H](CCC(=O)O)NC(=O)[C@H](CO)NC(=O)[C@H](CCSC)NC(=O)[C@H](CCCNC(=N)N)NC(=O)[C@H](CCCNC(=N)N)NC(=O)[C@H](CC(C)C)NC(=O)[C@@H](NC(=O)[C@H](CCC(N)=O)NC(=O)[C@H](CCSC)NC(=O)[C@H](CC(N)=O)NC(=O)[C@H](Cc2ccccc2)NC(C)=O)CSSC[C@@H](C(N)=O)NC(=O)[C@H](CC(=O)O)NC(=O)[C@H](CC(=O)O)NC(=O)[C@H](CCSC)NC(=O)[C@H]([C@@H](C)CC)NC(=O)[C@H](CO)NC(=O)[C@H](C)NC1=O` [Peptide 22] (Ac-FNMQCLRRMSEAGVDPNLNQEQRWAKIASIMDDC-NH2; disulfide 5-34) here?
Answer: The IC50 was 1 to 10 µM.

Question: What does the source list for “Ustekinumab: a humanized antibody that binds IL-23 (p40 subunit), approved for the treatment of psoriasis [reference compound]”?
Answer: blocking of binding of IL-23 to IL-12Rβ1 [2]: blocked; Mouse splenocyte assay [3]: 0.06 µg/mL
